Test results published in patent US20130310256A1, “HERBICIDAL COMPOSITIONS COMPRISING 4-AMINO-3-CHLORO-5-FLUORO-6-(4-CHLORO-2-FLUORO-3-METHOXYPHENYL) PYRIDINE-2-CARBOXYLIC ACID OR A DERIVATIVE THEREOF AND VLCFA AND LIPID SYNTHESIS INHIBITING HERBICIDES” (DOW AGROSCIENCES LLC, priority 2008, published 2013).
Where “and” joins values, the source holds several entries; their conditions need not be identical. Identical values can stand only once.

Legend:
[1] = system: ECHCG; assay: Example V: field trial, in-water application to transplanted rice, Niigata, Japan; assay type: in vivo, Echinochloa crus-galli; conditions: early post-emergence; for Visual Weed Control ECHCG (11 DAA) Obs / Visual Weed Control ECHCG Obs: 11 DAA
Experimental: Post and pre-emergence field trials were conducted in Niigata, Japan. Trial sites were located in commercially grown fields of transplanted rice (Oryza sativa, variety: Koshihikari) using standard herbicide small plot research methodology. The trial plot size was 2 meters (m)×2 m with 3 replications. The nursery plants were grown in the greenhouse using practical methods and transplanted into the field at the 2.5-leaf stage on May 7, 2012. The row and in-row spaces were 30 cm and 17 cm, respectively. The crop was grown using normal cultural practices for fertilization, water management and maintenance to ensure good growth of the crop and the weeds.
Treatments consisted of the benzyl ester of 4-amino-3-chloro-5-fluoro-6-(4-chloro-2-fluoro-3-methoxyphenyl)pyridine-2-carboxylic acid (Compound A) formulated as an SC (suspension concentrate) and various herbicidal components alone and in combination. Compound A benzyl ester was applied on an active ingredient basis. The herbicidal components were applied on an active ingredient basis and included very long chain fatty acid (VLCFA) synthesis-inhibiting and fatty acid/lipid biosynthesis herbicides pretilachlor formulated as a commercially available granular formulation and benfuresate formulated as a commercially available flowable formulation.
Compound A benzyl ester SC was once diluted in 100 mL water in the 200 mL bottle/plot to achieve the desired rates and applied by water injection. Water injection applications were made by hand as evenly as possible. Pretilachlor was applied by hand, and benfuresate was applied using a pipette to achieve the desired rates. Each compound in mixture treatments was applied separately and successively. Water depth was 3 cm at application. […] Visual weed control was scored on a scale of 0 to 100 percent where 0 corresponds to no injury and 100 corresponds to complete kill.
All treatment results, both for the single product and mixtures, are an average of 3 replicates. The trial sites had naturally occurring populations of weeds. The weed spectrum included, but was not limited to, common barnyardgrass (Echinochloa crus-galli, ECHCG), monochoria (Monochoria vaginalis, MOOVA), Japanese bulrush (Scirpus juncoides, SCPJU), kuroguwai (Eleocharis kuroguwai, ELOKU), common falsepimpernel (Lindernia pyxidaria, LIDPY), Souchet tardif (Cyperus serotinus, CYPSE), small-flower flatsedge (Cyperus difformis, CYPDI), American waterwort (Elatine triandra, ELTTR), and swamp smartweed (Polygonum hydropiperoides, POLHP).
Colby's equation was used to determine the herbicidal effects expected from the mixtures (Colby, S. R. 1967. Calculation of the synergistic and antagonistic response of herbicide combinations. Weeds 15:20-22.).
Some of the compounds tested, application rates employed, plant species tested, and results for submerged (weeds have not yet emerged from the flood water) weed control are given in Table 54. Some of the compounds tested, application rates employed, plant species tested, and results for early postemergence weed control are given in Tables 55-56.

[2] = system: BRAPP; assay: Example I: postemergence foliar-applied weed control, direct seeded rice weeds, greenhouse; assay type: in vivo; conditions: for Visual Weed Control Obs: 20 DAA; for Visual Weed Control (%) - 22 DAA BRAPP Obs: foliar
In short: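 Plants grown in loam/sandy loam–calcareous grit soil (80:20) in greenhouse, 14 hr photoperiod, about 29° C. day/26° C. night, treated postemergence at first to fourth true leaf stage. Foliar spray at 187 L/ha with 1.25% (v/v) crop oil concentrate; Compound A dosed on acid equivalent basis, partners on active ingredient basis.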

With `CCS(=O)(=O)Oc1ccc2c(c1)C(C)(C)CO2` [Benfuresate, 2,3-dihydro-3,3-dimethyl-5-benzofuranyl ethanesulfonate] the “Visual Weed Control ECHCG (11 DAA) Obs” value ([1]; 600 gai/ha) was 6.7% and the “Visual Weed Control ECHCG (16 DAA) Obs” value ([1]; 600 gai/ha) was 20.0%.

`CCN(CC)C(=O)n1cnc(S(=O)(=O)c2c(C)cc(C)cc2C)n1` [Cafenstrole, N,N-diethyl-3-[(2,4,6-trimethylphenyl)sulfonyl]-1H-1,2,4-triazole-1-carboxamide] was tested, and the “Visual Weed Control Obs” value ([2]; 26.25 gai/ha Himeadow WP) was 0%, the “Visual Weed Control Obs” value ([2]; 52.5 gai/ha Himeadow WP) was 0% and the “Visual Weed Control Obs” value ([2]; 105 gai/ha Himeadow WP) was 0%.

For `COc1c(Cl)ccc(-c2nc(C(=O)O)c(Cl)c(N)c2F)c1F` [Compound A Acid, 4-amino-3-chloro-6-(4-chloro-2-fluoro-3-methoxyphenyl)-5-fluoropyridine-2-carboxylic acid], the “Visual Weed Control Obs” value ([2]; 4.38 gae/ha) was 50% and 60% and 75% and the “Visual Weed Control Obs” value ([2]; 8.75 gae/ha) was 70% and 80%.

`COc1c(Cl)ccc(-c2nc(C(=O)OCc3ccccc3)c(Cl)c(N)c2F)c1F` [Compound A Benzyl Ester, benzyl ester of 4-amino-3-chloro-5-fluoro-6-(4-chloro-2-fluoro-3-methoxy-phenyl)pyridine-2-carboxylic acid] was tested, and the “Visual Weed Control (%) - 22 DAA BRAPP Obs” value (“Visual Weed Control (%)” below) ([2]; 8 gae/ha) was 60% and 65%, the “Visual Weed Control (%)” value ([2]; 16 gae/ha) was 60% and 80% and the “Visual Weed Control Obs” value ([2]; 4.38 gae/ha) was 60%. The “Visual Weed Control Obs” value ([2]; 8.75 gae/ha) was 65%, the “Visual Weed Control (%)” value ([2]; 32 gae/ha) was 90% and 85% and the “Visual Weed Control ECHCG (11 DAA) Obs” value ([1]; 100 gai/ha) was 3.3%. The “Visual Weed Control ECHCG Obs” value ([1]; 100 gai/ha) was 6.7% and the “Visual Weed Control ECHCG (16 DAA) Obs” value ([1]; 100 gai/ha) was 20.0%.

With `CCCOCCN(C(=O)CCl)c1c(CC)cccc1CC` [Pretilachlor, 2-chloro-N-(2,6-diethylphenyl)-N-(2-propoxyethyl)acetamide] the “Visual Weed Control Obs” value ([2]; 37.5 gai/ha) was 0%, the “Visual Weed Control Obs” value ([2]; 75 gai/ha) was 0% and the “Visual Weed Control Obs” value ([2]; 150 gai/ha) was 0%. For the same compound, the “Visual Weed Control ECHCG Obs” value ([1]; 400 gai/ha) was 46.7%.
